Assay results taken from PMC11079024, “Identification of a family of species-selective complex I inhibitors as potential anthelmintics” (Nature Communications, 2024).

How the values were obtained:
[1] = tested on: C. elegans ben-1 mutant strains ECA882, ECA917, ECA1075, ECA1080, CB3474; format: cell-based, Caenorhabditis elegans; settings: score 0-1 relative to DMSO, values >1 set to 1
H. polygyrus = settings: cited from earlier work

SMILES	C. elegans L1 relative motility, 3-hour post 200 µM KCN dilution [1]	reduction in H. polygyrus worm burden (H. polygyrus; single dose 100 mg/kg, mice)	reduction in worm burden, H. polygyrus murine model (H. polygyrus; single 300 mg/kg dose)
c1ccc2[nH]c(-c3cscn3)nc2c1 [Thiabendazole]	1.000	–	–
COC(=O)Nc1nc2ccc(Sc3ccccc3)cc2[nH]1 [fenbendazole, reference compound]	–	90%	–
COC(=O)Nc1nc2ccc(C(=O)c3ccccc3)cc2[nH]1 [mebendazole, reference compound]	1.000	–	63.5%
